Source: patent publication US10039828B2, “Compositions comprising salbutamol sulphate” (MEXICHEM AMANCO HOLDING S.A. DE C.V., priority 2011, dated 2018)

Test: apparent surfactant dissolution (solubility) in propellant, viewed with the naked eye
Type: physicochemical
Settings: for Solubility of sorbitan monooleate in the propellant / Solubility of sorbitan trioleate in the propellant / Solubility of oleic acid in the propellant: ambient temperature (19.5-25.0° C.)
Description: A number of experiments were conducted to investigate the solubility of various surfactants in R-134a and R-152a. The apparent surfactant dissolution in each propellant was studied at ambient temperature (19.5-25.0° C.) by adding a known quantity of surfactant to a plastic-coated, pressure-resistant, clear glass aerosol bottle. A continuous flow valve was then crimped onto the bottle. A total of 10 grams of each propellant was filled into each aerosol bottle such that the surfactant concentration ranged from 0 to 5% w/w. After addition of propellant, the contents were sonicated for 10 mins and viewed with the naked eye for dissolution.

With sorbitan monooleate the “Solubility of sorbitan monooleate in the propellant” value (propellant R-134a) was “Up to 0.03 % w/w” and the “Solubility of sorbitan monooleate in the propellant” value (propellant R-152a) was “Up to 0.05 % w/w”.

In the case of sorbitan trioleate, the “Solubility of sorbitan trioleate in the propellant” value (propellant R-134a) is reported as “Up to 0.05 % w/w” and the “Solubility of sorbitan trioleate in the propellant” value (propellant R-152a) is reported as “Up to 0.05 % w/w”.

For CCCCCCCC/C=C\CCCCCCCC(=O)O [oleic acid], the “solubility in R-152a compared with R-134a” value (R-152a versus R-134a) was “much higher”, the “solubility in R-152a compared with any other surfactant” value (R-152a, versus the other surfactants tested) was “much higher” and the “Solubility of oleic acid in the propellant” value (propellant R-134a) was “Up to 0.05 % w/w”. The “Solubility of oleic acid in the propellant” value (propellant R-152a) was “Up to 2.5 % w/w”.
